This is an account of results in patent US20230022400A1, “IMMUNOMODULATORS” (Bristol-Myers Squibb Company, priority 2019, published 2023).

Where a SMILES comes first, the peptide text is derived from it. Bridges are numbered along the chain shown (N, C = ends). [ ]: non-standard residue; d: D form. The star is where a group is joined. Trp(1-CH2CO2Me) = COC(=O)Cn1cc(C[C@H](N)C(=O)O)c2ccccc21; Trp(1-CH2COOH) = N[C@@H](Cc1cn(CC(=O)O)c2ccccc12)C(=O)O; X7 = Cc1ccc(-n2c3ccccc3c3c(*)nc(C)nc32)nc1; Hyp = O=C(O)[C@@H]1C[C@@H](O)CN1; X20 = Cc1ccc2[nH]c3c(*)ncnc3c2c1; X8 = Cn1cnc2c(Cl)nc3sc(*)nc3c21; NMeNle = CCCC[C@H](NC)C(=O)O; X17 = Clc1cc2nc(*)sc2cc1Cl; NMeA = CN[C@@H](C)C(=O)O; X14 = Clc1cccc2sc(*)nc12; Dab = NCC[C@H](N)C(=O)O; X21 = Fc1ccc2nc(*)sc2c1; Dap = NC[C@H](N)C(=O)O; X9 = Fc1cccc2sc(*)nc12; X1 = c1ccc2sc(*)nc2c1

The assay addresses T1, PD-1/PD-L1 interaction (PD-1-Ig / PD-L1-His) (Homo sapiens, UniProt Q9NZQ7).
T1 construct: TVMV protease site (linker) (C); made in house; host or cells: HEK293T cells
In words: PD-1/PD-L1 Homogenous Time-Resolved Fluorescence (HTRF) binding assay. Particulars: PD-L1-His 10 nM final, PD-1-Ig 20 nM final; inhibitors pre-incubated with PD-L1-His for 15 m. From the text: The ability of the compounds of formula (I) to bind to PD-L1 was investigated using a PD-1/PD-L1 Homogenous Time-Resolved Fluorescence (HTRF) binding assay.
The interaction of PD-1 and PD-L1 can be assessed using soluble, purified preparations of the extracellular domains of the two proteins. The PD-1 and PD-L1 protein extracellular domains were expressed as fusion proteins with detection tags, for PD-1, the tag was the Fc portion of Immunoglobulin (PD-1-Ig) and for PD-L1 it was the 6 histidine motif (PD-L1-His). All binding studies were performed in an HTRF assay buffer consisting of dPBS supplemented with 0.1% […] bovine serum albumin and 0.05% (v/v) Tween-20. For the h/PD-L1-His binding assay, inhibitors were pre-incubated with PD-L1-His (10 nM final) for 15 m in 4 μl of assay buffer, followed by addition of PD-1-Ig (20 nM final) in 1 μl of assay buffer and further incubation for 15 m. HTRF detection was achieved using europium crypate-labeled anti-Ig (1 nM final) and allophycocyanin (APC) labeled anti-His (20 nM final). Antibodies were diluted in HTRF detection buffer and 5 μl was dispensed on top of the binding reaction. The reaction mixture was allowed to equilibrate for 30 minutes and the resulting signal (665 nm/620 nm ratio) was obtained using an EnVision fluorometer. Additional binding assays were established between the human proteins PD-1-Ig/PD-L2-His (20 & 5 nM, respectively) and CD80-His/PD-L1-Ig (100 & 10 nM, respectively).
Recombinant Proteins: Human PD-1 (25-167) with a C-terminal human Fc domain of immunoglobulin G (Ig) epitope tag [hPD-1 (25-167)-3S-IG] and human PD-L1 (18-239) with a C-terminal His epitope tag [hPD-L1(18-239)-TVMV-His] were expressed in HEK293T cells and purified sequentially by ProteinA affinity chromatography and size exclusion chromatography. Human PD-L2-His and CD80-His was obtained through commercial sources.
Table 1 lists the IC50 values for representative examples of this disclosure measured in the PD-1/PD-L1 Homogenous Time-Resolved Fluorescence (HTRF) binding assay.
(In general: Time-resolved FRET reads energy transfer from a long-lived donor to a nearby acceptor.)

T1 sequence (Q9NZQ7 18-239): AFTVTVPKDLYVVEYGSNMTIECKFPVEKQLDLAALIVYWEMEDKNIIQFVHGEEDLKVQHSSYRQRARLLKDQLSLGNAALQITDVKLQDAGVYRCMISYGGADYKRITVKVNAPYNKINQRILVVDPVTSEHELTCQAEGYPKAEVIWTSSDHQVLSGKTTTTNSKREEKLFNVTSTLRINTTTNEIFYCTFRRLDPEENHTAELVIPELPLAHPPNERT

One may read the IC50 as the concentration at which inhibition is half-maximal. A higher IC50 goes with weaker potency in that assay. As to `CCCC[C@H]1C(=O)N(C)[C@@H](CCCC)C(=O)N[C@@H](CC(C)C)C(=O)N[C@H](C(=O)NCC(N)=O)CSCC(=O)N[C@@H](Cc2ccc(O)cc2)C(=O)N(C)[C@@H](C)C(=O)N[C@@H](CC(N)=O)C(=O)N2CCC[C@H]2C(=O)N[C@@H](CNc2nc3cc(Cl)c(Cl)cc3s2)C(=O)N[C@@H](CC(C)C)C(=O)N2C[C@H](O)C[C@H]2C(=O)N[C@@H](Cc2c[nH]c3ccccc23)C(=O)N[C@@H](CCNc2nc3cc(Cl)c(Cl)cc3s2)C(=O)N[C@@H](Cc2cn(CC(=O)O)c3ccccc23)C(=O)N1C` [Compound 11005] ({CH2CO}-Y[NMeA]NP[Dap](X17)L[Hyp]W[Dab](X17)[Trp(1-CH2COOH)][NMeNle][NMeNle]LCG-NH2; thioether N-14), the IC50 stood at 89 nM.
Next, `CCCC[C@H]1C(=O)N(C)[C@@H](CCCC)C(=O)N[C@@H](CC(C)C)C(=O)N[C@H](C(=O)NCC(N)=O)CSCC(=O)N[C@@H](Cc2ccc(O)cc2)C(=O)N(C)[C@@H](C)C(=O)N[C@@H](CC(N)=O)C(=O)N2CCC[C@H]2C(=O)N[C@@H](CNc2nc3c(Cl)cccc3s2)C(=O)N[C@@H](CC(C)C)C(=O)N2C[C@H](O)C[C@H]2C(=O)N[C@@H](Cc2c[nH]c3ccccc23)C(=O)N[C@@H](CCNc2nc3c(Cl)cccc3s2)C(=O)N[C@@H](Cc2cn(CC(=O)O)c3ccccc23)C(=O)N1C` [Compound 11006] ({CH2CO}-Y[NMeA]NP[Dap](X14)L[Hyp]W[Dab](X14)[Trp(1-CH2COOH)][NMeNle][NMeNle]LCG-NH2; thioether N-14): 7.9 nM.
Next, `CCCC[C@H]1C(=O)N(C)[C@@H](CCCC)C(=O)N[C@@H](CC(C)C)C(=O)N[C@H](C(=O)NCC(N)=O)CSCC(=O)N[C@@H](Cc2ccc(O)cc2)C(=O)N(C)[C@@H](C)C(=O)N[C@@H](CC(N)=O)C(=O)N2CCC[C@H]2C(=O)N[C@@H](CNc2nc3c(F)cccc3s2)C(=O)N[C@@H](CC(C)C)C(=O)N2C[C@H](O)C[C@H]2C(=O)N[C@@H](Cc2c[nH]c3ccccc23)C(=O)N[C@@H](CCNc2nc3c(F)cccc3s2)C(=O)N[C@@H](Cc2cn(CC(=O)O)c3ccccc23)C(=O)N1C` [Compound 11007] ({CH2CO}-Y[NMeA]NP[Dap](X9)L[Hyp]W[Dab](X9)[Trp(1-CH2COOH)][NMeNle][NMeNle]LCG-NH2; thioether N-14): 4 nM.
For `CCCC[C@H]1C(=O)N(C)[C@@H](CCCC)C(=O)N[C@@H](CC(C)C)C(=O)N[C@H](C(=O)NCC(N)=O)CSCC(=O)N[C@@H](Cc2ccc(O)cc2)C(=O)N(C)[C@@H](C)C(=O)N[C@@H](CC(N)=O)C(=O)N2CCC[C@H]2C(=O)N[C@@H](CNc2nc3c(F)cccc3s2)C(=O)N[C@@H](CC(C)C)C(=O)N2C[C@H](O)C[C@H]2C(=O)N[C@@H](Cc2c[nH]c3ccccc23)C(=O)N[C@@H](CCN)C(=O)N[C@@H](Cc2cn(CC(=O)O)c3ccccc23)C(=O)N1C` [Compound 11008] ({CH2CO}-Y[NMeA]NP[Dap](X9)L[Hyp]W[Dab][Trp(1-CH2COOH)][NMeNle][NMeNle]LCG-NH2; thioether N-14), the IC50 turned out to be 5.3 nM.
For `CCCC[C@H]1C(=O)N(C)[C@@H](CCCC)C(=O)N[C@@H](CC(C)C)C(=O)N[C@H](C(=O)NCC(N)=O)CSCC(=O)N[C@@H](Cc2ccc(O)cc2)C(=O)N(C)[C@@H](C)C(=O)N[C@@H](CC(N)=O)C(=O)N2CCC[C@H]2C(=O)N[C@@H](CNc2nc3ccc(F)cc3s2)C(=O)N[C@@H](CC(C)C)C(=O)N2C[C@H](O)C[C@H]2C(=O)N[C@@H](Cc2c[nH]c3ccccc23)C(=O)N[C@@H](CCN)C(=O)N[C@@H](Cc2cn(CC(=O)O)c3ccccc23)C(=O)N1C` [Compound 11010] ({CH2CO}-Y[NMeA]NP[Dap](X21)L[Hyp]W[Dab][Trp(1-CH2COOH)][NMeNle][NMeNle]LCG-NH2; thioether N-14), the IC50 was found to be 45 nM.
As to `CCCC[C@H]1C(=O)N(C)[C@@H](CCCC)C(=O)N[C@@H](CC(C)C)C(=O)N[C@H](C(=O)NCC(N)=O)CSCC(=O)N[C@@H](Cc2ccc(O)cc2)C(=O)N(C)[C@@H](C)C(=O)N[C@@H](CC(N)=O)C(=O)N2CCC[C@H]2C(=O)N[C@@H](CNc2nc3ccccc3s2)C(=O)N[C@@H](CC(C)C)C(=O)N2C[C@H](O)C[C@H]2C(=O)N[C@@H](Cc2c[nH]c3ccccc23)C(=O)N[C@@H](CCN)C(=O)N[C@@H](Cc2cn(CC(=O)O)c3ccccc23)C(=O)N1C` [Compound 11012] ({CH2CO}-Y[NMeA]NP[Dap](X1)L[Hyp]W[Dab][Trp(1-CH2COOH)][NMeNle][NMeNle]LCG-NH2; thioether N-14), the IC50 turned out to be 7.9 nM.
As for `CCCC[C@H]1C(=O)N(C)[C@@H](CCCC)C(=O)N[C@@H](CC(C)C)C(=O)N[C@H](C(=O)NCC(N)=O)CSCC(=O)N[C@@H](Cc2ccc(O)cc2)C(=O)N(C)[C@@H](C)C(=O)N[C@@H](CC(N)=O)C(=O)N2CCC[C@H]2C(=O)N[C@@H](CNc2nc3ccccc3s2)C(=O)N[C@@H](CC(C)C)C(=O)N2C[C@H](O)C[C@H]2C(=O)N[C@@H](Cc2c[nH]c3ccccc23)C(=O)N[C@@H](CCNc2nc3ccccc3s2)C(=O)N[C@@H](Cc2cn(CC(=O)OC)c3ccccc23)C(=O)N1C` [Compound 12001] ({CH2CO}-Y[NMeA]NP[Dap](X1)L[Hyp]W[Dab](X1)[Trp(1-CH2CO2Me)][NMeNle][NMeNle]LCG-NH2; thioether N-14), the IC50 was determined as 138 nM.
For the compound `CCCC[C@H]1C(=O)N(C)[C@@H](CCCC)C(=O)N[C@@H](CC(C)C)C(=O)N[C@H](C(=O)NCC(N)=O)CSCC(=O)N[C@@H](Cc2ccc(O)cc2)C(=O)N(C)[C@@H](C)C(=O)N[C@@H](CC(N)=O)C(=O)N2CCC[C@H]2C(=O)N[C@@H](CNc2nc3c(nc(Cl)c4ncn(C)c43)s2)C(=O)N[C@@H](CC(C)C)C(=O)N2C[C@H](O)C[C@H]2C(=O)N[C@@H](Cc2c[nH]c3ccccc23)C(=O)N[C@@H](CCN)C(=O)N[C@@H](Cc2cn(CC(=O)O)c3ccccc23)C(=O)N1C` [Compound 21001] ({CH2CO}-Y[NMeA]NP[Dap](X8)L[Hyp]W[Dab][Trp(1-CH2COOH)][NMeNle][NMeNle]LCG-NH2; thioether N-14), the IC50 is 2.4 nM.
`CCCC[C@H]1C(=O)N(C)[C@@H](CCCC)C(=O)N[C@@H](CC(C)C)C(=O)N[C@H](C(=O)NCC(N)=O)CSCC(=O)N[C@@H](Cc2ccc(O)cc2)C(=O)N(C)[C@@H](C)C(=O)N[C@@H](CC(N)=O)C(=O)N2CCC[C@H]2C(=O)N[C@@H](CNc2ncnc3c2[nH]c2ccc(C)cc23)C(=O)N[C@@H](CC(C)C)C(=O)N2C[C@H](O)C[C@H]2C(=O)N[C@@H](Cc2c[nH]c3ccccc23)C(=O)N[C@@H](CCN)C(=O)N[C@@H](Cc2cn(CC(=O)O)c3ccccc23)C(=O)N1C` [Compound 21003] ({CH2CO}-Y[NMeA]NP[Dap](X20)L[Hyp]W[Dab][Trp(1-CH2COOH)][NMeNle][NMeNle]LCG-NH2; thioether N-14) registered an IC50 of 13 nM.
For the compound `CCCC[C@H]1C(=O)N(C)[C@@H](CCCC)C(=O)N[C@@H](CC(C)C)C(=O)N[C@H](C(=O)NCC(N)=O)CSCC(=O)N[C@@H](Cc2ccc(O)cc2)C(=O)N(C)[C@@H](C)C(=O)N[C@@H](CC(N)=O)C(=O)N2CCC[C@H]2C(=O)N[C@@H](CNc2nc3c(nc(Cl)c4ncn(C)c43)s2)C(=O)N[C@@H](CC(C)C)C(=O)N2C[C@H](O)C[C@H]2C(=O)N[C@@H](Cc2c[nH]c3ccccc23)C(=O)N[C@@H](CCNc2nc3c(nc(Cl)c4ncn(C)c43)s2)C(=O)N[C@@H](Cc2cn(CC(=O)O)c3ccccc23)C(=O)N1C` [Compound 21004] ({CH2CO}-Y[NMeA]NP[Dap](X8)L[Hyp]W[Dab](X8)[Trp(1-CH2COOH)][NMeNle][NMeNle]LCG-NH2; thioether N-14), the IC50 turned out to be 5.7 nM.
Take `CCCC[C@H]1C(=O)N(C)[C@@H](CCCC)C(=O)N[C@@H](CC(C)C)C(=O)N[C@H](C(=O)NCC(N)=O)CSCC(=O)N[C@@H](Cc2ccc(O)cc2)C(=O)N(C)[C@@H](C)C(=O)N[C@@H](CC(N)=O)C(=O)N2CCC[C@H]2C(=O)N[C@@H](CNc2nc(C)nc3c2c2ccccc2n3-c2ccc(C)cn2)C(=O)N[C@@H](CC(C)C)C(=O)N2C[C@H](O)C[C@H]2C(=O)N[C@@H](Cc2c[nH]c3ccccc23)C(=O)N[C@@H](CCN)C(=O)N[C@@H](Cc2cn(CC(=O)O)c3ccccc23)C(=O)N1C` [Compound 21005] ({CH2CO}-Y[NMeA]NP[Dap](X7)L[Hyp]W[Dab][Trp(1-CH2COOH)][NMeNle][NMeNle]LCG-NH2; thioether N-14): the IC50 is 25 nM.
